{
  "source": "patent US9938301B2",
  "about": "“Dihydropyrimido fused ring derivative as HBV inhibitor” (QILU PHARMACEUTICAL CO., LTD., priority 2014, dated 2018)",
  "test_system": "HBV DNA in HepG2.2.15 cells",
  "assay": "HBV in vitro assay quantitive qPCR test",
  "assay_type": "cell-based",
  "conditions": "Hepatitis B virus, HepG2.2.15 cells",
  "procedure": "• 1 Purpose of the test: • The content of HBV DNA in HepG2.2.15 cells was detected by real time quantitive qPCR test to evaluate an inhibitory action of the compound on HBV with an EC50 value of the compound as an indicator. • 2 Experimental materials: • 2.1 Cell lines: HepG2.2.15 Cells • HepG2.2.15 cell culture media (DMEM/F12, Invitrogen-11330057; 10% serum, Invitrogen-10099141; 100 units/ml Penicillin and 10 μg/ml Streptomycin, Invitrogen-15140122; 1% non-essential amino acid, Invitrogen-1140076; 2 mM L-GLUTAMINE, Invitrogen-25030081; 300 μg/ml Geneticin, Invitrogen-10131027 • 2.2 Reagents: • trypsin (Invitrogen-25300062) • DPBS (Hyclone-SH30028.01B) • DMSO (Sigma-D2650-100ML) • High-Throughput DNA Purification Kit (QIAamp 96 DNA Blood Kit, Qiagen-51162) • Quantitative Fast Start Universal Probe Reagent (FastStart Universal Probe Master, Roche-04914058001) • 2.3 Materials and Instruments: • 96-well cell culture plate (Corning-3599) • CO2 Incubator (HERA-CELL-240) • Optical Sealing Membrane (ABI-4311971) • Quantitative PCR 96-well Plate (Applied Biosystems-4306737) • Fluorescent Quantitative PCR Instrument (Applied Biosystems-7500 real time PCR system) • 3. Testing steps and Methods: • 3.1 HepG2.2.15 cells (4×10^4 cells/well) were planted into a 96-well plate, and at 37° C., 5% CO2 cultured overnight. • 3.2 On Day 2, the compounds were diluted in totally 8 concentrations with a dilution gradient of three times. The compounds at different concentrations were added into the culture wells in duplicate. The final concentration of DMSO in the culture media was 1%. 1 μM GLS4 was used as 100% inhibition control; 1% DMSO as 0% inhibition control. • 3.3 On Day 5, replacing with the fresh culture media containing the compound was performed. • 3.4 On Day 8, the culture media in the culture wells was collected, and DNA was extracted with a High-Throughput DNA Purification Kit (Qiagen-51162), See Specification of the product for specific steps. • 3.5 Preparation of PCR Reaction Mixture was shown in Table 1:\n• 3.6 To each well of a 96-well PCR plate was added 15 μl reaction mixture, and then to each well was added 10 μl sample DNA or HBV DNA standard. • 3.7 The reaction conditions of PCR were: heating at 95° C. for 10 minutes; then at 95° C. denaturing for 15 seconds, and at 60° C. extending for 1 minute, totally 40 cycles. • 3.8 Data Analysis: • 3.8.1 The inhibition percentage was calculated: % Inh.=[1−(DNA copy number in sample−DNA copy number in 1 μM GLS4)/(DNA copy number in DMSO control−DNA copy number in 1 μM GLS4)]×100. • 3.8.2 Calculating EC50: the concentration of the compound for 50% inhibition of HBV (EC50) was calculated by using GraphPad Prism Software. • 4 Testing Results • The testing results were shown in Table 3: […]",
  "note": "Like-named read-outs stand apart in the source and are kept apart here.",
  "data": [
    {"smiles": "COC(=O)C1=C2C[C@H](NS(N)(=O)=O)CN2C(c2nccs2)=N[C@H]1c1cccc(F)c1F", "note": "[Example 220]", "values": [
      {"measurement": "EC50", "setting": "qPCR assay, read-out: Concentration for 50% inhibition of HBV (EC50)value", "result": "< 0.1", "unit": "µM"},
      {"measurement": "EC50", "setting": "summary list of target compounds, Examples 166-220 (values of Table 3), read-out: BIOACTIVITY (inhibitory actions on HBV DNA, EC50)", "result": "< 0.1", "unit": "µM"}
    ]}
  ]
}
